# Results as given in ChEMBL document CHEMBL1201862, “PubChem BioAssay data set” (2004).
# Active and inactive are the calls of the source.
# What was measured:
# Format in all cases: functional
# [1] = target: Receptor-type tyrosine-protein kinase FLT3 (Homo sapiens, UniProt P36888);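 further: FLT3 was tested as one member of a kinome-wide kinase panel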
# [2] = target: Dual specificity protein kinase CLK4 (Homo sapiens, UniProt Q9HAZ1)
# Activin receptor type-1 = Activin receptor type-1 (Homo sapiens, UniProt Q04771); assay: Navigating the Kinome. Panel member name: ACVR1
# [3] = target: Vascular endothelial growth factor receptor 2 (Homo sapiens, UniProt P35968)
# [4] = target: Serine/threonine-protein kinase Chk1 (Homo sapiens, UniProt O14757);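 further: measured as one member of a kinome-wide kinase profiling panel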
# [5] = target: Casein kinase I isoform alpha (Homo sapiens, UniProt P48729)
# [6] = target: Fibroblast growth factor receptor 1 (Homo sapiens, UniProt P11362)
# [7] = target: Platelet-derived growth factor receptor alpha (Homo sapiens, UniProt P16234); assay: Navigating the Kinome. Panel member name: PDGFRA
# [8] = target: Tyrosine-protein kinase Lck (Homo sapiens, UniProt P06239);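 further: lck was assayed as one member of a kinase panel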
# Aurora kinase A = target: T1, Aurora kinase A (Homo sapiens, UniProt O14965);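 further: value from the Navigating the Kinome kinase panel profiling, panel entry STK6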
# T1 sequence (O14965 whole entry): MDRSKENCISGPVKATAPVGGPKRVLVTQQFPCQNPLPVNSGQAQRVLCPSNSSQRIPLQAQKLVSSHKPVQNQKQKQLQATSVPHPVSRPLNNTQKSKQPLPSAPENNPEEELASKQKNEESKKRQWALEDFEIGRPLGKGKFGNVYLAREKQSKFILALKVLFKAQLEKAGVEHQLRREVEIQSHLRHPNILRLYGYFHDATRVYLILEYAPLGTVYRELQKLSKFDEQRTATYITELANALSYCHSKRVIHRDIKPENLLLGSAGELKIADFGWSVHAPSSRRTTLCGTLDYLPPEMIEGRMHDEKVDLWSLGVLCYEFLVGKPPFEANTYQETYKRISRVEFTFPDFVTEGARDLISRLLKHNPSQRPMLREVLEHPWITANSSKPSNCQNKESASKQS
# [9] = target: Tyrosine-protein kinase receptor TYRO3 (Homo sapiens, UniProt Q06418);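 further: TYRO3 value obtained as one member of a kinome-wide profiling panel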
# [10] = target: Leucine-rich repeat serine/threonine-protein kinase 2 (Homo sapiens, UniProt Q5S007);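 further: value from a broad kinome-wide panel profiling study in which LRRK2 was one of the kinases tested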
# [11] = target: Dual specificity tyrosine-phosphorylation-regulated kinase 1B (Homo sapiens, UniProt Q9Y463); assay: Navigating the Kinome. Panel member name: DYRK1B
# [12] = target: Leukocyte tyrosine kinase receptor (Homo sapiens, UniProt P29376); assay: Navigating the Kinome. Panel member name: LTK
# [13] = target: Protein kinase C theta type (Homo sapiens, UniProt Q04759); assay: Navigating the Kinome. Panel member name: PRKCQ
# [14] = target: Cyclin-dependent kinase 8 (Homo sapiens, UniProt P49336); assay: Navigating the Kinome. Panel member name: CDK8
# [15] = target: Glycogen synthase kinase-3 beta (Homo sapiens, UniProt P49841);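 further: value comes from a broad kinome profiling panel, with GSK3B as the panel member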
# [16] = target: Macrophage-stimulating protein receptor (Homo sapiens, UniProt Q04912); assay: Navigating the Kinome. Panel member name: MST1R
# Aurora kinase B = Aurora kinase B (Homo sapiens, UniProt Q96GD4)
# [17] = target: Dual specificity tyrosine-phosphorylation-regulated kinase 1A (Homo sapiens, UniProt Q13627);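 further: measured against DYRK1A as one member of a broad kinome profiling panel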
# [18] = target: Serine/threonine-protein kinase pim-1 (Homo sapiens, UniProt P11309)
# [19] = target: Mitogen-activated protein kinase 8 (Homo sapiens, UniProt P45983);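 further: value comes from one member of a kinome-wide kinase profiling panel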
# [20] = target: Dual specificity mitogen-activated protein kinase kinase 1 (Homo sapiens, UniProt Q02750); assay: Navigating the Kinome. Panel member name: MAP2K1
# [21] = target: Hepatocyte growth factor receptor (Homo sapiens, UniProt P08581);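 further: kinase panel profiling across the kinome, with MET as the panel member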
# [22] = target: Tyrosine-protein kinase ABL1 (Homo sapiens, UniProt P00519)
# [23] = target: Cyclin-dependent kinase 5 (Homo sapiens, UniProt Q00535);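 further: CDK5 measured as one member of a kinase profiling panel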
# [24] = target: Cyclin-dependent kinase 7 (Homo sapiens, UniProt P50613);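 further: value comes from a kinome-wide kinase profiling panel in which CDK7 is one member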
# [25] = target: Mitogen-activated protein kinase kinase kinase kinase 4 (Homo sapiens, UniProt O95819)
# LIM domain kinase 1 = LIM domain kinase 1 (Homo sapiens, UniProt P53667); assay: Navigating the Kinome. Panel member name: LIMK1
# [26] = target: Macrophage colony-stimulating factor 1 receptor (Homo sapiens, UniProt P07333);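 further: value comes from the Navigating the Kinome screening panel, CSF1R member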
# [27] = target: ALK tyrosine kinase receptor (Homo sapiens, UniProt Q9UM73);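 further: ALK tested as one member of a kinase panel screen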
# [28] = target: Rho-associated protein kinase 1 (Homo sapiens, UniProt Q13464);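 further: measured within a broad kinome-wide panel profiling many kinases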
# [29] = target: Mitogen-activated protein kinase kinase kinase kinase 2 (Homo sapiens, UniProt Q12851);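 further: measured as one member of a kinome-wide kinase panel, with MAP4K2 as the panel entry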
# [30] = target: cAMP-dependent protein kinase catalytic subunit alpha (Homo sapiens, UniProt P17612)
# [31] = target: Tyrosine-protein kinase Fyn (Homo sapiens, UniProt P06241)
# [32] = target: Cyclin-dependent kinase 9 (Homo sapiens, UniProt P50750);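 further: value from the CDK9 entry of a kinome-spanning kinase panel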
# Tyrosine-protein kinase receptor TYRO3, sequence (Q06418 whole entry): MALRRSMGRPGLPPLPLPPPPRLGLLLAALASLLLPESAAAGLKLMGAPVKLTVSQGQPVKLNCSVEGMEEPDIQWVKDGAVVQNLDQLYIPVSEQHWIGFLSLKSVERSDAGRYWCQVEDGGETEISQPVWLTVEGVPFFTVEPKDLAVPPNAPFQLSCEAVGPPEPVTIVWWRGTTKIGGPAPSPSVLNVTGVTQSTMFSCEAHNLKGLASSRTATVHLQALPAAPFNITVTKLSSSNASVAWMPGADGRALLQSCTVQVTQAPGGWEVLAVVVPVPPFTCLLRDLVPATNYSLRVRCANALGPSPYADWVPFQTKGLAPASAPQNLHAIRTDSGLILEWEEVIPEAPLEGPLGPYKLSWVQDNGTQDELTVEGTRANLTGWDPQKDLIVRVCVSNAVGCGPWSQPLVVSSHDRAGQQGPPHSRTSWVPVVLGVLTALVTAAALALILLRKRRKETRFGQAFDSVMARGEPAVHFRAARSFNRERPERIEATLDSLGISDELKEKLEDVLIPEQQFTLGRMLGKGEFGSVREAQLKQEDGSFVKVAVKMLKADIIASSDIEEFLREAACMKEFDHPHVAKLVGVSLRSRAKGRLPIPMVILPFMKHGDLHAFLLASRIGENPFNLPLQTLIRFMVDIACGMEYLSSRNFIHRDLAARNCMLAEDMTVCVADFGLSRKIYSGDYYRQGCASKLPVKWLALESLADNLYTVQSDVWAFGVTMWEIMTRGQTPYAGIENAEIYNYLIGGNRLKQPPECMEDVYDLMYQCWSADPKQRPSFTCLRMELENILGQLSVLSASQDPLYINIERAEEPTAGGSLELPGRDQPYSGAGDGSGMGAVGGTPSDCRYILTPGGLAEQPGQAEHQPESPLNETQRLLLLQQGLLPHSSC
# Cyclin-dependent kinase 5, sequence (Q00535 whole entry): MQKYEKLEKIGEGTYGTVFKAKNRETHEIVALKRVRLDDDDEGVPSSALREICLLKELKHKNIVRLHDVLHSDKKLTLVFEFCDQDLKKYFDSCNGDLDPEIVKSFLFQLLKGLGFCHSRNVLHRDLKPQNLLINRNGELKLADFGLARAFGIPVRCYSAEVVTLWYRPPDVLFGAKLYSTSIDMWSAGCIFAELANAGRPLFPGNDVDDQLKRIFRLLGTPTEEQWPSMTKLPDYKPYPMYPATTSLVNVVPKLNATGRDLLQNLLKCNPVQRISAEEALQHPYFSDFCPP
# Macrophage colony-stimulating factor 1 receptor, sequence (P07333 whole entry): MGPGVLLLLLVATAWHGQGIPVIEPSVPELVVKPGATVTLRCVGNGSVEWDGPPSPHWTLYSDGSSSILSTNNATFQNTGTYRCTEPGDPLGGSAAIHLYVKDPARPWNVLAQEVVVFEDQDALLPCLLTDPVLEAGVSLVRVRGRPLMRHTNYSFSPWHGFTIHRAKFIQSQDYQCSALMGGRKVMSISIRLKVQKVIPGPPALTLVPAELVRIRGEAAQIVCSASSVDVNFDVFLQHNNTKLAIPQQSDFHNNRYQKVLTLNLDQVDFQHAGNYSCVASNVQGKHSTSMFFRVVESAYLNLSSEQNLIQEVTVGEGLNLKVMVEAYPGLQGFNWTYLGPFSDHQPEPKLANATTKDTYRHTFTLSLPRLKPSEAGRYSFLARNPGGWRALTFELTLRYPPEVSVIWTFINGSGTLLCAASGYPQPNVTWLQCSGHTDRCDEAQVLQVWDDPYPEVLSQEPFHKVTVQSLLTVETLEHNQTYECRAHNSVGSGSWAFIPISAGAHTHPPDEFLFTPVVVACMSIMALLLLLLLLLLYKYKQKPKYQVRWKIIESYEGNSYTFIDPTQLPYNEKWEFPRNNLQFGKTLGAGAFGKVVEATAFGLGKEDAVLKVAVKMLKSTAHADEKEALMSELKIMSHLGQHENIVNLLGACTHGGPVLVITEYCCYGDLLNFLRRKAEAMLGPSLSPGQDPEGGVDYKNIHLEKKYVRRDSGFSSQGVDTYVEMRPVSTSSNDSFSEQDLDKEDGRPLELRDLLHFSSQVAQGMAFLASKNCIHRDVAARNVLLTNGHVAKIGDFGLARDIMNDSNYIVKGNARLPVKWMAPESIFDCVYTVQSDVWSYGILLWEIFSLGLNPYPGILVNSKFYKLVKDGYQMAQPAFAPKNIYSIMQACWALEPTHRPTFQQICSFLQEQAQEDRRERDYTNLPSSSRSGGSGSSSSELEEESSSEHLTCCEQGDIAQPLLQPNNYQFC
# Tyrosine-protein kinase Lck, sequence (P06239 whole entry): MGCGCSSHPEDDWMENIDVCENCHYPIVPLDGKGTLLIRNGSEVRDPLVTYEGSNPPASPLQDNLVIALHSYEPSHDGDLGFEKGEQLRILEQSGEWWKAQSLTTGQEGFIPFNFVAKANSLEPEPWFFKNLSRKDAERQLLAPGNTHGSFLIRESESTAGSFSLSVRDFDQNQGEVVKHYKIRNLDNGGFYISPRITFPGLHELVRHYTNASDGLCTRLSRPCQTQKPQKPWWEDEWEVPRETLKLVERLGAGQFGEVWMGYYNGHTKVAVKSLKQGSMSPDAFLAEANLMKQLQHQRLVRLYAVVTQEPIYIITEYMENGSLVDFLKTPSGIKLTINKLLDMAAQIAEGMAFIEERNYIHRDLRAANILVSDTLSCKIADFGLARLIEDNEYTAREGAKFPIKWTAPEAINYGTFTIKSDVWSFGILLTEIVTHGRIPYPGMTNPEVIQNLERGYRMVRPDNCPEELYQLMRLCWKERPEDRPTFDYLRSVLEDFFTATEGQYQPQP
# Casein kinase I isoform alpha, sequence (P48729 whole entry, canonical isoform): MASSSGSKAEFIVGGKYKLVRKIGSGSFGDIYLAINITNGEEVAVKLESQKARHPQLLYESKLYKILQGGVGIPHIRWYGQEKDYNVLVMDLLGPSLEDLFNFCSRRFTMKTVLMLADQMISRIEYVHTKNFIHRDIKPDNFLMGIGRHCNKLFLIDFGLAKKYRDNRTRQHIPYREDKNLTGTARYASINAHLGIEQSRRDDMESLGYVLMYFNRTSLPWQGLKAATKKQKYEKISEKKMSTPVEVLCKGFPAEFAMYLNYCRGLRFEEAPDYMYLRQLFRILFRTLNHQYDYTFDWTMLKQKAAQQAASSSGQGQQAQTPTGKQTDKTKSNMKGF
# Activin receptor type-1, sequence (Q04771 whole entry): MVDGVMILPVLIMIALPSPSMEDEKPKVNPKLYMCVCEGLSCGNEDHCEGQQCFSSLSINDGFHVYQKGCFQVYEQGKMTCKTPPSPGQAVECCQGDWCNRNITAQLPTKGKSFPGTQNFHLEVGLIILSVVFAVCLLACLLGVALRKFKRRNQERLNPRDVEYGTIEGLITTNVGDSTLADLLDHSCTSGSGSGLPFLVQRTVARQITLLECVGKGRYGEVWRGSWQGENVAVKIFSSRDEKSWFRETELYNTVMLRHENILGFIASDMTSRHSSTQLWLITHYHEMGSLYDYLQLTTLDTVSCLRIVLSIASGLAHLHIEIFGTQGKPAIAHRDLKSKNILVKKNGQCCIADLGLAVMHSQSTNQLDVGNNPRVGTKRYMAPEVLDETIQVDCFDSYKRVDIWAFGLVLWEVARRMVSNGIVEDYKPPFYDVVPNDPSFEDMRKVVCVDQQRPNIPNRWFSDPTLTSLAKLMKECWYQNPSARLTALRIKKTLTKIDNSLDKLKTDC
# Aurora kinase B, sequence (Q96GD4 whole entry): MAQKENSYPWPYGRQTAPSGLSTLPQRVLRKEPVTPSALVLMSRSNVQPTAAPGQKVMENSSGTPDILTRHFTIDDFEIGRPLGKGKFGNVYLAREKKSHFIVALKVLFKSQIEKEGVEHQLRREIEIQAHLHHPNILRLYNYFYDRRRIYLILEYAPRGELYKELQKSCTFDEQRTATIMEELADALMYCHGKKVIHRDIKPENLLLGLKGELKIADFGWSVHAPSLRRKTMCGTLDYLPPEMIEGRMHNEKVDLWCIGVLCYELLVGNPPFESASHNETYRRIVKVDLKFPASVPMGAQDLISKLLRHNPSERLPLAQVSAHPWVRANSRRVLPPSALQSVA
# Mitogen-activated protein kinase kinase kinase kinase 2, sequence (Q12851 whole entry): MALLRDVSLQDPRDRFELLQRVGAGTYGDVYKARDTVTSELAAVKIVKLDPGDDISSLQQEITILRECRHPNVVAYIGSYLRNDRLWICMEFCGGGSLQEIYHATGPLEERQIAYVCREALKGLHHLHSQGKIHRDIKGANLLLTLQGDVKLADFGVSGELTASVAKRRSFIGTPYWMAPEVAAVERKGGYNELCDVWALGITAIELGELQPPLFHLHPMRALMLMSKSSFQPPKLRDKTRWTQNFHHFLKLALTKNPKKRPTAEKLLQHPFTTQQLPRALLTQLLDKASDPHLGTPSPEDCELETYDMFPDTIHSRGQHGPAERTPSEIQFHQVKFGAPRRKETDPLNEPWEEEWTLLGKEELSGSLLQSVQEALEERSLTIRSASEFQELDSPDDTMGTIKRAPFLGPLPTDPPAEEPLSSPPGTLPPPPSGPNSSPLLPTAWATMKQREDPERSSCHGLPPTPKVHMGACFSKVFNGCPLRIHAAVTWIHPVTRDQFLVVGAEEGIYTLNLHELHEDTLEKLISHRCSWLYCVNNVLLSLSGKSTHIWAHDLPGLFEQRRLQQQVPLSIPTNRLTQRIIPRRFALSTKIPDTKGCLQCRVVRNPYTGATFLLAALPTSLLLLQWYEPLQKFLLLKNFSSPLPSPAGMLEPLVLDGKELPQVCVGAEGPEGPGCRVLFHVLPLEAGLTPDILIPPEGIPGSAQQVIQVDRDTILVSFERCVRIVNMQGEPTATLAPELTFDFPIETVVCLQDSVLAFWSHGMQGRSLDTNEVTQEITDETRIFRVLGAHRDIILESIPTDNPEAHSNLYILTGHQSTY
# Serine/threonine-protein kinase pim-1, sequence (P11309 whole entry): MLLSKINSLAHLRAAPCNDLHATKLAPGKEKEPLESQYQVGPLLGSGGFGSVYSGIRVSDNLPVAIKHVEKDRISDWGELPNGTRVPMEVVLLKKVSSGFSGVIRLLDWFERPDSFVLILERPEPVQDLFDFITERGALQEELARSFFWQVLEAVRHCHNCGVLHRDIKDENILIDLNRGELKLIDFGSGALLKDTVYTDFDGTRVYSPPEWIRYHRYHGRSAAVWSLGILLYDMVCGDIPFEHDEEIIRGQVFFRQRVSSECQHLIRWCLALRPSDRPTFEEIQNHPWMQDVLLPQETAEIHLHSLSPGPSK
structure (smiles),measurement,setting,value
Cc1cccc(-c2cccc3onc(N)c23)c1,Ki,[1],63.1 µM (active)
same,Ki,[2],5.01 µM (active)
same,Ki,Activin receptor type-1,3.16 µM (active)
same,Ki,[3],100 µM (active)
same,Ki,[4],39.8 µM (active)
same,Ki,[5],25.1 µM (active)
same,Ki,[6],79.4 µM (active)
same,Ki,[7],15.8 µM (active)
same,Ki,[8],100 µM (active)
same,Ki,Aurora kinase A,> 63.1 µM (inactive)
same,Ki,[9],31.6 µM (active)
same,Ki,[10],15.8 µM (active)
same,Ki,[11],10 µM (active)
same,Ki,[12],7.94 µM (active)
same,Ki,[13],> 100 µM (inactive)
same,Ki,[14],3.16 µM (active)
same,Ki,[15],39.8 µM (active)
same,Ki,[16],50.1 µM (active)
same,Ki,Aurora kinase B,6.31 µM (active)
same,Ki,[17],12.6 µM (active)
same,Ki,[18],5.01 µM (active)
same,Ki,[19],39.8 µM (active)
same,Ki,[20],2 µM (active)
same,Ki,[21],31.6 µM (active)
same,Ki,[22],25.1 µM (active)
same,Ki,[23],5.01 µM (active)
same,Ki,[24],50.1 µM (active)
same,Ki,[25],10 µM (active)
same,Ki,LIM domain kinase 1,20 µM (active)
same,Ki,[26],15.8 µM (active)
same,Ki,[27],100 µM (active)
same,Ki,[28],10 µM (active)
same,Ki,[29],3.16 µM (active)
same,Ki,[30],10 µM (active)
same,Ki,[31],79.4 µM (active)
same,Ki,[32],39.8 µM (active)
